Results published in patent publication US20250333397A1 (REMIX THERAPEUTICS INC., priority 2021, published 2025).
Read-outs that look alike come from different tables or passages of the source.

Assays:
Assay type in all cases: cell-based, human
SMN2 mRNA = test: RT-qPCR splicing assay panel, SMN2 canonical junction (CJ) mRNA; details: Homo sapiens
Summary of the method: (§1)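 A673 or K562 cells were treated 24 h at 37 °C with an 11-point 3-fold compound dilution series, top dose 10 uM final, DMSO ≤0.25%. Lysates went to one-step RT-qPCR for canonical (CJ) and alternative-exon (AJ) junctions; ΔCt vs GAPDH, GUSB or PPIA, normalized to DMSO, as 2^(-ΔΔCt).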

HTT mRNA = test: RT-qPCR splicing assay, HTT canonical (CJ) and alternative (AJ) junction mRNA; details: Homo sapiens; for AC50: read-out: HTT AJ (AC50, increase in AJ mRNA)
Summary of the method: as §1

Target C mRNA = test: RT-qPCR splicing assay panel, Target C canonical junction (CJ) mRNA; details: Homo sapiens
Summary of the method: as §1

MYB mRNA = test: RT-qPCR splicing assay, MYB canonical (CJ) and alternative (AJ) junction mRNA; details: Homo sapiens; for AC50: read-out: MYB AJ (AC50, increase in AJ mRNA)
Summary of the method: as §1

[1] = canonical junction (CJ) mRNA, RT-qPCR panel, Table 4A, read-out: SMN2, decrease in CJ mRNA levels, IC50
[2] = 24 h, Table 3A, A673 or K562 cells, 24 h treatment
[3] = 24 h, Table 3A, A673 or K562 cells, 24 h treatment, read-out: HTT CJ (IC50, decrease in CJ mRNA)
[4] = canonical junction (CJ) mRNA, RT-qPCR panel, Table 4A, read-out: HTT, decrease in CJ mRNA levels, IC50
[5] = canonical junction (CJ) mRNA, RT-qPCR panel, Table 4A, read-out: Target C, decrease in CJ mRNA levels, IC50
[6] = 24 h, Table 3A, A673 or K562 cells, 24 h treatment, read-out: MYB CJ (IC50, decrease in CJ mRNA)
[7] = canonical junction (CJ) mRNA, RT-qPCR panel, Table 4A, read-out: MYB, decrease in CJ mRNA levels, IC50
[8] = Table 4B, gene panel, read-out: SMN2 (IC50, decrease in CJ mRNA levels)
[9] = 24 h, Table 3B, A673 or K562 cells, 24 h treatment
[10] = 24 h, Table 3B, A673 or K562 cells, 24 h treatment, read-out: HTT CJ (IC50, decrease in CJ mRNA)
[11] = Table 4B, gene panel, read-out: HTT (IC50, decrease in CJ mRNA levels)
[12] = Table 4B, gene panel, read-out: Target C (IC50, decrease in CJ mRNA levels)
[13] = 24 h, Table 3B, A673 or K562 cells, 24 h treatment, read-out: MYB CJ (IC50, decrease in CJ mRNA)
[14] = Table 4B, gene panel, read-out: MYB (IC50, decrease in CJ mRNA levels)

| IC50 (SMN2 mRNA; [1]) [µM] | IC50 (HTT mRNA; [3]) [µM] | IC50 (HTT mRNA; [4]) [µM] | IC50 (Target C mRNA; [5]) [µM] | IC50 (MYB mRNA; [6]) [µM] | IC50 (MYB mRNA; [7]) [µM] | IC50 (SMN2 mRNA; [8]) [µM] | IC50 (HTT mRNA; [10]) [µM] | IC50 (HTT mRNA; [11]) [µM] | IC50 (Target C mRNA; [12]) [µM] | IC50 (MYB mRNA; [13]) [µM] | IC50 (MYB mRNA; [14]) [µM] | Structure (SMILES) | AC50 (HTT mRNA; [2]) [µM] | AC50 (MYB mRNA; [2]) [µM] | AC50 (HTT mRNA; [9]) [µM] | AC50 (MYB mRNA; [9]) [µM] |
| --- | --- | --- | --- | --- | --- | --- | --- | --- | --- | --- | --- | --- | --- | --- | --- | --- |
| 1 to 10 | > 10 | > 10 | > 10 | > 10 | > 10 | – | – | – | – | – | – | Cc1cnc(-c2cc(O)c(-c3ccc(N4CCC(NC5CCC5)C4)nn3)cc2F)s1 (stereo not drawn) [Compound 367] | > 10 | > 10 | – | – |
| < 0.1 | < 0.1 | < 0.1 | 0.1 to 1 | 0.1 to 1 | 0.1 to 1 | – | – | – | – | – | – | Cc1nc2c(F)cc(-c3ccc(-c4ccc(N5CCC(NC6CCC6)C5)nn4)c(O)c3)cc2o1 (stereo not drawn) [Compound 326] | 0.1 to 1 | 0.1 to 1 | – | – |
| < 0.1 | < 0.1 | < 0.1 | < 0.1 | < 0.1 | < 0.1 | – | – | – | – | – | – | Cc1ncc(-c2cc(O)c(-c3ccc(N4CC[C@@H](N[C@H](C)C5CC5)C4)nn3)cc2F)s1 [Compound 418] | < 0.1 | < 0.1 | – | – |
| 1 to 10 | 1 to 10 | 1 to 10 | > 10 | > 10 | > 10 | – | – | – | – | – | – | COc1cc(-c2ccc(-c3ccc(N4CCC(NC5CCC5)C4)nn3)c(O)c2)c(F)cn1 (stereo not drawn) [Compound 307] | 1 to 10 | > 10 | – | – |
| – | – | – | – | – | – | > 10 | > 10 | > 10 | > 10 | > 10 | > 10 | Cc1nc2cc(O)c(-c3ccc(N4CCC(NC5CCC5)C4)nn3)cc2o1 (stereo not drawn) [Compound 830] | – | – | > 10 | > 10 |
| < 0.1 | < 0.1 | < 0.1 | 0.1 to 1 | 0.1 to 1 | 0.1 to 1 | – | – | – | – | – | – | COc1cc(-c2cc(O)c(-c3ccc(N4CC[C@@](C)(NCC5CC5)C4)nn3)cc2F)cnn1 [Compound 451, 2-{6-[(3R)-3-[(cyclopropylmethyl)amino]-3-methylpyrrolidin-1-yl]pyridazin-3-yl}-4-fluoro-5-(6-methoxypyridazin-4-yl)phenol] | 0.1 to 1 | 0.1 to 1 | – | – |
| > 10 | > 10 | > 10 | > 10 | > 10 | > 10 | – | – | – | – | – | – | CC(=O)c1cc(-c2ccc(-c3ccc(N4CCC(NC5CCC5)C4)nn3)c(O)c2)cnn1 (stereo not drawn) [Compound 445] | > 10 | > 10 | – | – |
| < 0.1 | 0.1 to 1 | 0.1 to 1 | 0.1 to 1 | 0.1 to 1 | 0.1 to 1 | – | – | – | – | – | – | COc1cc(-c2cc(O)c(-c3ccc(N4CCC(N[C@H]5C[C@@H](F)C5)C4)nn3)cc2F)cnn1 (stereo partly drawn) [Compound 273, 4-fluoro-5-(6-methoxypyridazin-4-yl)-2-[6-(3-{[(1s,3s)-3-fluorocyclobutyl]amino}pyrrolidin-1-yl)pyridazin-3-yl]phenol] | 0.1 to 1 | 0.1 to 1 | – | – |
| – | – | – | – | – | – | 0.1 to 1 | 0.1 to 1 | 0.1 to 1 | 1 to 10 | 1 to 10 | 1 to 10 | Cc1nc2cc(O)c(-c3ccc(N4CCC(C)(NC(C)(C)C)C4)nn3)cc2o1 (stereo not drawn) [Compound 837] | – | – | 1 to 10 | 1 to 10 |
| < 0.1 | < 0.1 | < 0.1 | < 0.1 | < 0.1 | < 0.1 | – | – | – | – | – | – | Cc1ncc(-c2cc(O)c(-c3ccc(N4CC[C@@H](NCC5CC5)C4)nn3)cc2F)s1 [Compound 392] | < 0.1 | < 0.1 | – | – |
| 0.1 to 1 | 0.1 to 1 | 0.1 to 1 | 0.1 to 1 | 1 to 10 | 1 to 10 | – | – | – | – | – | – | Oc1cc(-c2cnn3c2CCC3)ccc1-c1ccc(N2CCC(NC3CCC3)C2)nn1 (stereo not drawn) [Compound 362] | 1 to 10 | 0.1 to 1 | – | – |

| Structure (SMILES) | IC50 (SMN2 mRNA; [1]) [µM] | IC50 (HTT mRNA; [3]) [µM] | IC50 (HTT mRNA; [4]) [µM] | IC50 (Target C mRNA; [5]) [µM] | IC50 (MYB mRNA; [6]) [µM] | IC50 (MYB mRNA; [7]) [µM] | IC50 (SMN2 mRNA; [8]) [µM] | IC50 (HTT mRNA; [10]) [µM] | IC50 (HTT mRNA; [11]) [µM] | IC50 (Target C mRNA; [12]) [µM] | IC50 (MYB mRNA; [13]) [µM] | IC50 (MYB mRNA; [14]) [µM] | AC50 (HTT mRNA; [2]) [µM] | AC50 (MYB mRNA; [2]) [µM] | AC50 (HTT mRNA; [9]) [µM] | AC50 (MYB mRNA; [9]) [µM] |
| --- | --- | --- | --- | --- | --- | --- | --- | --- | --- | --- | --- | --- | --- | --- | --- | --- |
| CN(c1ccc(-c2ccc(-c3cn[nH]c3)cc2O)nn1)C1CC(C)(C)NC(C)(C)C1 [Compound 360] | < 0.1 | < 0.1 | < 0.1 | < 0.1 | < 0.1 | < 0.1 | – | – | – | – | – | – | < 0.1 | < 0.1 | – | – |
